{
  "source": "patent US20080113938A1",
  "about": "“ACCELERATOR FOR MINERAL ABSORPTION AND USE THEREOF” (KABUSHIKI KAISHA HAYASHIBARA SEIBUTSU KAGAKU KENKYUJO, priority 2003, published 2008)",
  "assay_type_in_all_cases": "cell-based, Wister rats",
  "key": {"[1]": {"system": "reversed canal sac of intestinum ileum", "assay": "Calcium absorption in reversed canal sac, intestinum ileum", "description": "(§1) Experiment 1 confirmed that cyclic tetrasaccharide promotes mineral absorption in alimentary canal of rat concretely in intestinum ileum or its upper alimentary canal. The following experiment was carried out in order to determine a part of alimentary canal, cyclic tetrasaccharide acts on to promote mineral absorption. Twenty heads of Wister rats (nine week aged male, commercialized by Charlesriver Corporation, Kanagawa, Japan) were bred for three days with a usual solid feed for rats. Under the anesthetization with ether, alimentary canal was taken out from each rat which had been bled from a jugular vein and treated by abdominal operation. Each alimentary canal was divided into jejunum, intestinum ileum and colon/rectum and washed with physiological saline to remove the content. The resulting jejunum specimen, intestinum ileum specimen or colon/rectum specimen was cut off to prepare each midsection sized with about 10 cm in length. The resulting midsection of each specimen was reversed using a glass rod and immersed in a physiological saline babbled with gas consisting of 95% oxygen and 5% carbon dioxide. The resultant was cut into pieces sized with 5 cm in length and each piece was tied with a suture thread at both ends to prepare a reversed canal sac, and injected with about 0.5 ml of an internal sac solution containing 30 mM Tris-HCl buffer (pH7.4), 125 mM sodium chloride, 4 mM potassium chloride, 10 mM glucose and 1.25 mM calcium chloride (dihydrate) with a syringe and weighed. The resulting sac was immersed in an external sac solution (being bubbled with the gas consisting of 95% oxygen and 5% carbon dioxide) containing 50 mM, 100 mM or 200 mM of the same cyclic tetrasaccharide to Experiment 1 in the above solution containing 30 mM Tris-HCl buffer (pH7.4), 125 mM sodium chloride, 4 mM potassium chloride, 10 mM glucose and 1.25 mM calcium chloride (dihydrate). At 15 or 30 minutes after the immersion, the reversed canal sac was taken out from the solution and washed with distilled water. The internal sac solution was collected from the resulting sac and admixed with distilled water to give a final volume of 25 ml. The resulting solution was subjected to a calorimetric measurement of calcium content using “CALCIUM TEST C WAKO™” (commercialized by Wako Pure Chemicals Corporation, Osaka, Japan). As a negative control, an external sac solution without saccharides. As a positive control, an external sac solution containing 200 mM maltitol, reported to have the effect on promoting mineral absorption though intestinal canal, instead of cyclic tetrasaccharide were prepared and carried out in the same manner. Speed of calcium absorption (nmol/min·cm^2) and its relative values defining the value of negative control as 100 were calculated."}, "[2]": {"system": "reversed canal sac of jejunum", "assay": "Calcium absorption in reversed canal sac, jejunum", "description": "as §1"}, "[3]": {"system": "reversed canal sac of colon/rectum", "assay": "Calcium absorption in reversed canal sac, colon/rectum", "description": "as §1"}, "[4]": {"conditions": "200 mM saccharide in external sac solution"}},
  "note": "Marks after values point to notes of the source that are not given here.",
  "data": [
    {"molecule": "OC[C@@H](O)[C@@H](O[C@H]1O[C@H](CO)[C@@H](O)[C@H](O)[C@H]1O)[C@H](O)[C@@H](O)CO", "note": "[Maltitol, maltitol, reference compound]", "values": [
      {"measurement": "Absorption speed of calcium in alimentary canal sac, Intestinum ileum", "setting": "[1]; [4]", "value": "40.5 * nmol/min · cm^2"},
      {"measurement": "Relative value of calcium absorption speed (control = 100), Intestinum ileum", "setting": "[1]; [4]", "value": "(150)"},
      {"measurement": "promotion of calcium absorption in intestinum ileum", "setting": "[1]; reversed sac", "value": "strongly promoted"},
      {"measurement": "Absorption speed of calcium in alimentary canal sac, Jejunum", "setting": "[2]; [4]", "value": "27.9 * nmol/min · cm^2"},
      {"measurement": "Relative value of calcium absorption speed (control = 100), Jejunum", "setting": "[2]; [4]", "value": "(131)"},
      {"measurement": "promotion of calcium absorption in jejunum", "setting": "[2]; reversed sac", "value": "strongly promoted"},
      {"measurement": "Absorption speed of calcium in alimentary canal sac, Colon/Rectum", "setting": "[3]; [4]", "value": "22.3 * nmol/min · cm^2"},
      {"measurement": "Relative value of calcium absorption speed (control = 100), Colon/Rectum", "setting": "[3]; [4]", "value": "(168)"},
      {"measurement": "promotion of calcium absorption in colon/rectum", "setting": "[3]; reversed sac", "value": "strongly promoted"}
    ]}
  ]
}
